Experiment in all cases: biochemical
What all share (parameters): radiometric methyltransferase assay with tritiated SAM, IC50

In assay [1] the target is T1, PRMT6 (Homo sapiens, UniProt Q96LA8).
Assay [2] concerns the target T1, PRMT6. On the procedure: (§1) The methyltransferase selectivity was assessed at two compound concentrations of 1 and 10 μM by radiometric assays using tritiated-SAM. For methyltransferases: MLL1, MLL3, EZH1 (PRC2), and EZH2 (PRC2), G9a, GLP, SUV39H1, SUV39H2, SUV420H1, SUV420H2, SETD2, SETD8, SETDB1, SETD7, PRMT1, PRMT3, PRMT4, PRMT5/ MEP50 complex, PRMT6, PRMT7, PRMT8, PRMT9, PRDM9, SMYD2, SMYD3, DNMT1, and BCDIN3D the incorporation of a tritium-labeled methyl group into biotinylated substrate was monitored using scintillation proximity assay (SPA). Briefly, a 10 μL reaction containing ^3H-SAM and substrate at concentrations close to the apparent Km values for each enzyme (balanced conditions) was prepared. The reactions were quenched with 10 μL of 7.5 M guanidine hydrochloride; 180 μL of 20 mM Tris buffer (pH 8.0) were added, and the mixture was transferred to a 96-well FlashPlate and incubated for 1 h. The counts per minute (CPM) was measured on a TopCount plate reader. The CPM in the absence of compound or enzyme was defined as 100% activity and background (0%), respectively, for each dataset[74]–[76]. Selectivity of SGC8158 against 342 kinases was evaluated in a kinase panel TR-FRET assay at 1 and 0.1 μM compound in duplicates as described before. Briefly, tagged kinases were incubated with compound and staurosporine-based fluorescent probe where the binding was detected using Tb conjugated anti-tag antibody energy transfer to the probe. Excitation wavelength was 337 nm and fluorescent emission signal was measured for Tb (486 nm) and fluorescent probe (BODIPY, 515 nm). Specific and non-specific binding was determined in the absence and presence of unlabeled staurosporine. Assays using biotinylated H2B (23–37) as a substrate were performed in buffer (20 mM Tris–HCl, pH 8.5, 0.01% Tween-20, and 5 mM DTT) containing 5 nM PRMT7, 1.1 µM ^3H-SAM (Cat.# NET155V250UC; Perkin Elmer; www.perkinelmer.com) and 0.3 µM H2B (23–37). The reaction mixtures were incubated for 60 min at 23 °C. To stop the enzymatic reactions, 10 µL of 7.5 M guanidine hydrochloride was added, followed by 180 µL of buffer (20 mM Tris, pH 8.0), mixed and then transferred to a 96-well FlashPlate (Cat.# SMP103; Perkin Elmer; www.perkinelmer.com). After mixing, the reaction mixtures in Flash plates were incubated for 1 h and the CPM were measured using Topcount plate reader (Perkin Elmer, www.perkinelmer.com). The CPM counts in the absence of compound for each dataset were defined as 100% activity. In the absence of the enzyme, the CPM counts in each dataset were defined as background (0%). The IC50 values were determined using GraphPad Prism 7 software. For the kinetic analysis of HSPA8 methylation by PRMT7, the assay mixture contained 20 mM Tris–HCl, pH 8.5, 0.01% Tween-20, and 5 mM dithiothreitol (DTT), 1 mM MgCl2, 1 mM ATP where indicated, 250 nM PRMT7, fixed concentration (20 µM) of SAM, various concentrations (up to 40 µM) of HSPA8; or fixed concentration (10 µM) of HSPA8 with different concentrations of SAM (up to 20 µM). […] To determine the mode of action, the experiments were performed in the presence of fixed biotinylated H2B peptide (residues 23–37) or HSPA8 substrate concentration and increasing SAM concentration or at fixed concentration of SAM and varying concentration of the substrate. Twenty µL of reaction mixtures were incubated at 23 °C for 60 min. To stop reactions, 100 µL of 10% trichloroacetic acid (TCA) was added, mixed and transferred to filter-plates (Millipore; cat.# MSFBN6B10; www.millipore.com). Plates were centrifuged at 930 × g (Allegra X-15R—Beckman Coulter, Inc.) for 2 min followed by two additional 10% TCA washes and one ethanol wash followed by centrifugation. Plates were dried and 30 µL MicroScint-O (
The source holds these as a separate data set.

Assay [3] addresses PRMT5-MEP50 (Homo sapiens, UniProt O14744). As to the method:
as §1

The target of assay [4] is PRMT8 (Homo sapiens, UniProt Q9NR22). As to the method:
as §1

The target in assay [5] is T2, PRMT4 (Homo sapiens, UniProt Q86X55).
T2 construct: gene CARM1
T2 sequence (Q86X55 1-608): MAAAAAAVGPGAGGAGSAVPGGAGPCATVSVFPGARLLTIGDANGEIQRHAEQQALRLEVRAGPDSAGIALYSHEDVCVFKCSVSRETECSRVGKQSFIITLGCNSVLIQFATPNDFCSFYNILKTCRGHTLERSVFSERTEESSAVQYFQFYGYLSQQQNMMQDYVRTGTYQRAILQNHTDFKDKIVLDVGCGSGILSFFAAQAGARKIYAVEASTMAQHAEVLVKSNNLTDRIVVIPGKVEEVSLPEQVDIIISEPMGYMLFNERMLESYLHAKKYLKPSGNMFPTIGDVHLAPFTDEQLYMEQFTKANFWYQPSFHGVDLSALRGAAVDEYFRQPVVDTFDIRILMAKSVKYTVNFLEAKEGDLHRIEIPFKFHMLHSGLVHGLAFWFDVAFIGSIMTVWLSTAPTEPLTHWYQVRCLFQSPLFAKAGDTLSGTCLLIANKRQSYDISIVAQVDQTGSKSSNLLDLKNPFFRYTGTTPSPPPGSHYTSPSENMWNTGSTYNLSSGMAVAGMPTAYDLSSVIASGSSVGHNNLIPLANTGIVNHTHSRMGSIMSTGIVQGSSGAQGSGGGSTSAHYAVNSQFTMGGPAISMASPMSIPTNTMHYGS
On the procedure: as §1

Like-named read-outs stand apart in the source and are kept apart here.

By IC50 is commonly meant the concentration at which inhibition is half-maximal.

T1 sequence (Q96LA8 whole entry): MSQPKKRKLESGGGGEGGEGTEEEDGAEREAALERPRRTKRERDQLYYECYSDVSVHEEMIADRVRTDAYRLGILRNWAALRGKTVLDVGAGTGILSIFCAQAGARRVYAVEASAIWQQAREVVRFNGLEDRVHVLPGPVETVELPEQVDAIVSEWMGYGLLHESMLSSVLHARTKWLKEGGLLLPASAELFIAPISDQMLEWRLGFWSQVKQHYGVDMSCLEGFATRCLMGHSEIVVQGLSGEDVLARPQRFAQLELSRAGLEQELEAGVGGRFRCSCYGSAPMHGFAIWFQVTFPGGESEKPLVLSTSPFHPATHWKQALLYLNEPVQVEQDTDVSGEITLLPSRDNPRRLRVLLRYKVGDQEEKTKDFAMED
Chain of PRMT8 (Q9NR22 whole entry): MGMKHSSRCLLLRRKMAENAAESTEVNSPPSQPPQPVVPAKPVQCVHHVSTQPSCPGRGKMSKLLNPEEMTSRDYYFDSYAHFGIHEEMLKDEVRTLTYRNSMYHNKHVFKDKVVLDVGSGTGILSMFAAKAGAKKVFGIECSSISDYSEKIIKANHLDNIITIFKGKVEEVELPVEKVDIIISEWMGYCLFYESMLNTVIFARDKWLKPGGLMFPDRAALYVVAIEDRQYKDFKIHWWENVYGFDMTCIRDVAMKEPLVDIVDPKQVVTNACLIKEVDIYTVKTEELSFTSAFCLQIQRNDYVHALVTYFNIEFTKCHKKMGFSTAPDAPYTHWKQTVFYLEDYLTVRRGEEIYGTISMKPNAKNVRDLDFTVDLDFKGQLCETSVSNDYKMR
Chain of PRMT5-MEP50 (O14744 whole entry): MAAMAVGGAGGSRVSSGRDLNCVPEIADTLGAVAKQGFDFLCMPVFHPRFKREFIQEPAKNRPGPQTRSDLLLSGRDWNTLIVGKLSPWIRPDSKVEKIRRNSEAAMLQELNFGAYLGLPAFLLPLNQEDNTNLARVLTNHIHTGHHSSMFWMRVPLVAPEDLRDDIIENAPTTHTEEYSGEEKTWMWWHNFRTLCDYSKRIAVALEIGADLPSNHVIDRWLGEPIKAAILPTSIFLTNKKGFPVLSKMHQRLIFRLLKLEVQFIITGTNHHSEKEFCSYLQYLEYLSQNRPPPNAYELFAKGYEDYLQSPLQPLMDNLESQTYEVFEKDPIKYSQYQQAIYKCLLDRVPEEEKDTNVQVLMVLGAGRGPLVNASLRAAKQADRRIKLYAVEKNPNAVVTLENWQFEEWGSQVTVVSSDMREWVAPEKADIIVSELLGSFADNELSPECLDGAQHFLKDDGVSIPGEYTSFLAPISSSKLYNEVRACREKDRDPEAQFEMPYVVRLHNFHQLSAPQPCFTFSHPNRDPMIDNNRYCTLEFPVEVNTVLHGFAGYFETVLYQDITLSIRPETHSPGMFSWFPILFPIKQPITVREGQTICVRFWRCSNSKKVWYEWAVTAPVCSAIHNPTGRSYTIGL
Chain of PRMT5-MEP50 (Q9BQA1 whole entry partner): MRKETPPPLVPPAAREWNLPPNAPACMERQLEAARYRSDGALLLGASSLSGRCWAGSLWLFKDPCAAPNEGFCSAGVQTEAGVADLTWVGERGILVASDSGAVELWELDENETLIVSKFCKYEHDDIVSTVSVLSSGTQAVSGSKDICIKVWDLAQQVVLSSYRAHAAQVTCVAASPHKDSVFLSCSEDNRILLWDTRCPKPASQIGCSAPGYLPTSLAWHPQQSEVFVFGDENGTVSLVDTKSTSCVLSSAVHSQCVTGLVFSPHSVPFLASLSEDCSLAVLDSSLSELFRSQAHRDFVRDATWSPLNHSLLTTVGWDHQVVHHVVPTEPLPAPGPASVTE

In turn, `Nc1ncnc2c1ncn2[C@@H]1O[C@H](CSCCCCNCc2cccc(-c3ccc(Cl)cc3)c2)[C@@H](O)[C@H]1O` [SGC8158] had a half-maximal inhibitory concentration (IC50) in assay [1] of 15000 nM.
As to `Nc1ncnc2c1ncn2[C@@H]1O[C@H](CSCCCNCc2cccc(-c3ccc(Cl)cc3)c2)[C@@H](O)[C@H]1O` [SGC8172], the IC50 in assay [2] was ~1200 nM; in assay [3], 44 nM; in assay [4], ~1500 nM; in assay [5], 3.6 nM.

Source of the values: paper PMC7224190, “Pharmacological inhibition of PRMT7 links arginine monomethylation to the cellular stress response” (Nature Communications, 2020).
